Here are results for five molecules from US20200237698A1, “Viral Inhibitor” (priority 2017, published 2020).

The target of one data set is EBOV fusion protein (Zaire ebolavirus, UniProt Q05320). Type of data set: cell-based, Ebola.
Data set [1] has as its system human Adenovirus Type 5 (dE1/E3) containing GFP (Ad-GFP). The data set is described as follows: Ad-GFP infection of HEp2 cells evaluated by fluorescent microscope. The conditions noted are these: 10 μM, HEp2, 20 MOI, 24 hours. The format is cell-based.
Data set [2] deals with all three classes of fusion proteins, including Zika, EBOV, influenza A virus (IAV), SFV, VEEV, VSV and EBV. The format is cell-based. The conditions noted are these: for fusion blocked: 10 μM.
The test system of the next data set is HCMV-GFP. Briefly: HCMV-GFP infection of HFF evaluated by fluorescent microscope. The format is cell-based. To be noted: 7 days.
The subject of data set [3] is HEp2, 293T, Human foreskin fibroblasts (HFF) and Normal Human Astrocytes (NHAs). Briefly: Toxicity of GA to the tested cells. The conditions noted are these: at the active concentration (not shown).
The next data set deals with HCMV. The data set is described as follows: HCMV DNA copies in infected HFF by qPCR targeting the viral polymerase gene. Type of data set: cell-based. To be noted: 7 dpi. A general note: In qPCR the cycle at which signal appears reflects the starting amount.
In data set [4] the test system is two clinical isolates of HCMV. Briefly: HCMV plaque assay in human foreskin fibroblasts. Type of data set: cell-based. To be noted: HFF, 0-10 μM GA C15:1, 7 days.
Data set [5] deals with HSV-1 F'. Briefly: GA added to already HSV-1 infected HEp2 and 293T cells, WB detection of HSV-1 proteins. The conditions noted are these: 10 μM added 2 hours after infection at 1 MOI. The format is cell-based.
For a further data set, the system named is ZIKV (strain PRVABC59). The data set is described as follows: ZIKV infection of Normal Human Astrocytes, Zika viral RNA by Taqman real-time PCR. Type of data set: cell-based, Zika virus. The conditions noted are these: 5 μM to 20 μM, day 7.
Data set [6] deals with HSV-1 F'. Briefly: HSV-1 stock pre-treated with GA, infection of HEp2 or 293T, western blotting of ICP27, ICP8, Us11. The format is cell-based. To be noted: 10 MOI stock treated 1 hour with 50 μM, diluted to 0.5 MOI / 2.5 μM; HEp2 and 293T; 5, 10 and 29 hours post-infection. (Immunoblotting shows a protein as a band on a membrane.)

Sequence of EBOV fusion protein (Q05320 33-501 limits assumed): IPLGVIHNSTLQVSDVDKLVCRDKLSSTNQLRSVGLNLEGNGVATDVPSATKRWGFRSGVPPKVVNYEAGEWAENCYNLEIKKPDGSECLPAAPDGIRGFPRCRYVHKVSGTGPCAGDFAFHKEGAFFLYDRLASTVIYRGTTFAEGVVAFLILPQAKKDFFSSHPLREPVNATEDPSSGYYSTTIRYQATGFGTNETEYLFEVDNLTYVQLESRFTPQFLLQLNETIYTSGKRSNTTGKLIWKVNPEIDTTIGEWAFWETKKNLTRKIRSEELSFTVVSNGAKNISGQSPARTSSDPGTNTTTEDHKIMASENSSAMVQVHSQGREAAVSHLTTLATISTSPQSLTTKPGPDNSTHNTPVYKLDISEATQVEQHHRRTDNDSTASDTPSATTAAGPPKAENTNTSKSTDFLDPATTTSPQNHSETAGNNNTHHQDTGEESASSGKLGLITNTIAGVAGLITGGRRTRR
Sequence of EBOV fusion protein (Q05320 502-676 limits assumed): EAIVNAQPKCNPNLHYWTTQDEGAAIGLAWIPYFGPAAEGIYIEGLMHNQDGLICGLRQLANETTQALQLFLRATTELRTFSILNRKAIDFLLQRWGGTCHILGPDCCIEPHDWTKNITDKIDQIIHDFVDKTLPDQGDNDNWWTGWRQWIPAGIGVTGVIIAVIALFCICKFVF

Regarding `CCCCCCCCCCCCCc1cccc(O)c1C(=O)O` [GA C13:0, Ginkgolic acid (GA) C13:0], at EBOV fusion protein, the “inhibition of Ebola mediated cell-cell fusion” value is given as “inhibition of Ebola mediated cell-cell fusion”. Also, the “inhibition of nonenveloped Adenovirus infection” value in data set [1] is given as “did not inhibit”. Also, the fusion blocked in data set [2] was 100%. In the data set on HCMV-GFP (10 μM), the “effect on HCMV-GFP infection / plaque formation” value was “strong inhibitory effect on HCMV infection”.

Consider Ginkgolic acid [GA], for which, in [3], the toxicity result is “no toxicity at the active inhibitory range”. Besides, in the data set on HCMV (GA added 3 hours after infection), the “reduction of viral DNA” value is “about 80%”. The “HCMV DNA copies, dose dependence” value in the data set on HCMV (different concentrations of GA) is reported as “reduced in a dose dependent manner”. Besides, in data set [2], the “fusion after GA was washed” value was “fusion was restored” and the “fusion inhibition with oleic acid (OA) added together with GA” value is listed as “abolished the inhibitory effect of GA”.

For `CCCCCC/C=C\CCCCCCCc1cccc(O)c1C(=O)O` [GA C15:1, ginkgolic acid C15:1], the “HCMV infectivity monitored by plaquing efficiency” value in data set [4] is listed as “inhibited HCMV infectivity”. For the same molecule, the “inhibition of Ebola mediated cell-cell fusion” value against EBOV fusion protein is “inhibition of Ebola mediated cell-cell fusion”. Moreover, the “HSV-1 protein synthesis in already infected cells (WB)” value in the data set with HSV-1 F' [5] is “inhibiting the virus from that point”. In addition, the “inhibition of nonenveloped Adenovirus infection” value in [1] is “did not inhibit”. For the same molecule, the fusion blocked in data set [2] was 100%. Moreover, in the data set with ZIKV (strain PRVABC59), the “decrease in Zika viral RNA levels” value is reported as 80-90%. Besides, the “effect on HCMV-GFP infection / plaque formation” value in the data set with HCMV-GFP (10 μM) is “only single cells were infected”. Moreover, in the data set on HSV-1 F' [6], the “HSV-1 infection (ICP27, ICP8, Us11 by WB)” value is “complete inhibition of the virus”.

For the molecule `CCCCCC/C=C\CCCCCCCCCc1cccc(O)c1C(=O)O` [GA C17:1, Ginkgolic Acid C 17:1], on EBOV fusion protein, the “inhibition of Ebola mediated cell-cell fusion” value is “inhibition of Ebola mediated cell-cell fusion”. The “inhibition of nonenveloped Adenovirus infection” value in [1] was “did not inhibit”. In addition, the fusion blocked in [2] came to 100%. Besides, the “effect on HCMV-GFP infection / plaque formation” value in the data set on HCMV-GFP (10 μM) is “strong inhibitory effect on HCMV infection”.

As for `Nc1nc(O)c2ncn(COC(CO)CO)c2n1` [GCV, Ganciclovir, reference compound], the “effect on HCMV-GFP infection / plaque formation” value with HCMV-GFP (16 μM GCV) was “very strong inhibition of the virus”.
